Measurements: ChEMBL document CHEMBL1122287, “N2-1H-benzimidazol-2-yl-N4-phenyl-2,4-pyrimidinediamines and N2-1H-benzimidazol-2-yl-5,6,7,8-tetrahydro-N4-phenyl-2,4-quinazolinediamines as potential antifilarial agents” (1983)

What was measured:
[1] = tested on: Brugia pahangi; test: Antifilarial activity against Brugia pahangi in jirds was determined after subcutaneous administration of 100 mg/kg/day.; format: functional, organism-based
[2] = tested on: Litomosoides carinii; test: Antifilarial activity against Litomosoides carinii adults; format: functional; set-up: concentration or dose not given beside the values
[3] = tested on: Litomosoides carinii; test: Antifilarial activity against circulating Litomosoides carinii microfilaria; format: functional; set-up: concentration or dose not given beside the values

Structure (SMILES) | Reduction [1] | Reduction [2] [%] | Reduction [3] [%]
CCNCc1cc(Nc2cc(C(F)(F)F)nc(Nc3nc4cc(C(=O)c5ccccc5)ccc4[nH]3)n2)ccc1OC | Not significant | <60 | <90
CNCc1cc(Nc2cc(C)nc(Nc3nc4cc(Cl)c(Cl)cc4[nH]3)n2)ccc1O | Not significant | <60 | <90
CCN(CC)Cc1cc(Nc2cc(C(F)(F)F)nc(Nc3nc4cc(Cl)c(Cl)cc4[nH]3)n2)ccc1O | Not significant | <60 | <90
CN1CCN(Cc2cc(Nc3nc(Nc4nc5cc(Cl)c(Cl)cc5[nH]4)nc4c3CCCC4)ccc2O)CC1 | Not significant | <60 | <90
CCN(CC)Cc1cc(Nc2cc(C(F)(F)F)nc(Nc3nc4cc(C(=O)c5ccccc5)ccc4[nH]3)n2)ccc1O | Not significant | <60 | <90
CCOC(=O)N1CCN(Cc2cc(Nc3cc(C(F)(F)F)nc(Nc4nc5cc(Cl)c(Cl)cc5[nH]4)n3)cc(-c3ccccc3)c2O)CC1 | Not significant | <60 | <90
CCN(CC)Cc1cc(Nc2cc(-c3ccccc3)nc(Nc3nc4cc(Cl)c(Cl)cc4[nH]3)n2)ccc1O | Not significant | <60 | <90
CCN(CC)Cc1cc(Nc2cc(C(F)(F)F)nc(Nc3nc4cc(Cl)c(Cl)cc4[nH]3)n2)ccc1OC | Not significant | <60 | <90
CCN(CC)Cc1cc(Nc2cc(C(F)(F)F)nc(Nc3nc4cc(C(=O)c5ccccc5)ccc4[nH]3)n2)ccc1OC | Not significant | <60 | <90
CN1CCN(Cc2cc(Nc3cc(C(F)(F)F)nc(Nc4nc5cc(C(=O)c6ccccc6)ccc5[nH]4)n3)ccc2O)CC1 | Not significant | <60 | <90
CCN(CC)Cc1cc(Nc2nc(Nc3nc4cc(Cl)c(Cl)cc4[nH]3)nc3c2CCCC3)ccc1O | Not significant | <60 | <90
CCNCc1cc(Nc2cc(C)nc(Nc3nc4cc(Cl)c(Cl)cc4[nH]3)n2)ccc1OC | Not significant | <60 | <90
CCN(CC)Cc1cc(Nc2cc(C)nc(Nc3nc4cc(Cl)c(Cl)cc4[nH]3)n2)ccc1O | Not significant | <60 | <90
CCOc1ccc(Nc2cc(C)nc(Nc3nc4cc(Cl)c(Cl)cc4[nH]3)n2)cc1CN(CC)CC | Not significant | <60 | <90
CCNCc1cc(Nc2nc(Nc3nc4cc(Cl)c(Cl)cc4[nH]3)nc3c2CCCC3)ccc1OC | Not significant | <60 | <90
CCN(CC)Cc1cc(Nc2cc(C(F)(F)F)nc(Nc3nc4cc(Cl)c(Cl)cc4[nH]3)n2)cc(-c2ccccc2)c1O | Not significant | <60 | <90
Cc1cc(Nc2ccc(O)c(CN3CCN(C)CC3)c2)nc(Nc2nc3cc(Cl)c(Cl)cc3[nH]2)n1 | Not significant | <60 | <90
Cc1cc(Nc2ccc(O)c(CN3CCCC3)c2)nc(Nc2nc3cc(Cl)c(Cl)cc3[nH]2)n1 | Not significant | <60 | <90
CCN(CC)Cc1cc(Nc2cc(C)nc(Nc3nc4cc(Cl)c(Cl)cc4[nH]3)n2)ccc1OC | Not significant | <60 | <90
CCOc1ccc(Nc2nc(Nc3nc4cc(Cl)c(Cl)cc4[nH]3)nc3c2CCCC3)cc1CN(CC)CC | Not significant | <60 | <90
